Common to all, as to format: cell-based
The target of experiment [1] is T1, P2X purinoceptor 7 (Mus musculus) (UniProt Q9Z1M0).
T1 sequence (whole entry): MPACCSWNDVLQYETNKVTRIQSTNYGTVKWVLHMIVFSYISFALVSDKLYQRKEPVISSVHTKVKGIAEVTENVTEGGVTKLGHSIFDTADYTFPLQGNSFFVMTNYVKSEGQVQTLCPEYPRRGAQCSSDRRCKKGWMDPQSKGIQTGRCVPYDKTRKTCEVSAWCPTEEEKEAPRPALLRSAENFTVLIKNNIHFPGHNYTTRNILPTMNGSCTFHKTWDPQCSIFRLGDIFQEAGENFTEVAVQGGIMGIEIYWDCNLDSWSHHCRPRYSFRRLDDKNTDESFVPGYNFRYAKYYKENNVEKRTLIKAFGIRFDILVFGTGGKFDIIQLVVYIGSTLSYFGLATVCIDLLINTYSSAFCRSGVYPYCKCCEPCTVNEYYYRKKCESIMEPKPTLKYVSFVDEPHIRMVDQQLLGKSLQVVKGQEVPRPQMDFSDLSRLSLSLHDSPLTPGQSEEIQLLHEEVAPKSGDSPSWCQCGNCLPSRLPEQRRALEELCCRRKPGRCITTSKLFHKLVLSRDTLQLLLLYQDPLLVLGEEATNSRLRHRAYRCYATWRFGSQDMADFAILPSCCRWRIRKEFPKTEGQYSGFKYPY
In words: Antagonist activity at P2X7R in mouse N2a cells assessed as cytoprotective activity against ATP-induced cell death by measuring increase in cell viability at 10 uM incubated for 1 hr followed by ATP addition and measured after 48 hrs by MTT assay relative to control. To be noted: time 49.0 hrs. A general note: Tetrazolium dyes change colour on reduction, which living cells bring about.

The target of experiment [2] is T1, P2X purinoceptor 7 (Mus musculus). Description: Antagonist activity at P2X7R in mouse N2a cells assessed as inhibition of ATP-induced ROS production at 10 uM incubated for 1 hr by using H2DCF-DA probe based fluorescence assay.
The target is the same in experiment [3]. In words: Antagonist activity at P2X7R in mouse N2a cells assessed as reduction in ATP-induced YO-PRO-1 uptake by cells at 10 uM incubated for 1 hr by fluorescence based assay relative to control.
The target is the same in experiment [4]. In words: Antagonist activity at P2X7R in mouse N2a cells assessed as reduction in ATP-induced calcium influx at 10 uM incubated for 1 hr by Fura-2AM dye based spectrofluorometry relative to control.
For experiment [5] the target is unchanged. In words: Antagonist activity at P2X7R in mouse N2a cells assessed as inhibition of ATP-induced NO production at 10 uM incubated for 1 hr by using DAF-FM probe based fluorescence assay.
The target is the same in experiment [6]. Description: Antagonist activity at P2X7R in mouse N2a cells assessed as cytoprotective activity against ATP-induced cell death by measuring increase in cell viability at 0.1 to 5 uM incubated for 1 hr followed by ATP addition and measured after 48 hrs by MTT assay. To be noted: dose 0.1-5 µM, time 49.0 hrs.
Experiment [7] has the same target. Description: Antagonist activity at P2X7R in mouse N2a cells assessed as reduction in ATP-induced YO-PRO-1 uptake by cells incubated for 1 hr by fluorescence based assay. The settings on record: dose 0.1-10 µM.
Experiment [8] has the same target. Description: Antagonist activity at P2X7R in mouse N2a cells assessed as inhibition of ATP-induced NO production by measuring NO level at 1 uM incubated for 1 hr by using DAF-FM probe based fluorescence assay relative to control. Also on record: scale not given: the % may be the effect or the level left.
For experiment [9] the target is unchanged. Description: Antagonist activity at P2X7R in mouse N2a cells assessed as inhibition of ATP-induced ROS production at 1 uM incubated for 1 hr by using H2DCF-DA probe based fluorescence assay relative to control.
The target is the same in experiment [10]. In words: Antagonist activity at P2X7R in mouse N2a cells assessed as reduction in ATP-induced EtBr uptake by cells incubated for 1 hr by fluorescence based assay relative to control. The settings on record: concentration not given here.
For experiment [11] the target is unchanged. Description: Antagonist activity at P2X7R in mouse N2a cells assessed as reduction in ATP-induced calcium influx at 5 uM incubated for 1 hr by Fura-2AM dye based spectrofluorometry relative to control.
In the next experiment the test system is N2a. In words: Cytotoxicity against mouse N2a cells assessed as reduction in cell viability incubated for 24 hrs by MTT assay.
Experiment [12] has as its target T1, P2X purinoceptor 7 (Mus musculus). In words: Antagonist activity at P2X7R in mouse N2a cells assessed as inhibition of ATP-induced NO production at 0.1 to 10 uM incubated for 1 hr by using DAF-FM probe based fluorescence assay. To be noted: dose 0.1-10 µM.
Experiment [13] shares this target. In words: Antagonist activity at P2X7R in mouse N2a cells assessed as cytoprotective activity against ATP-induced cell death by measuring increase in cell viability at 1 uM incubated for 1 hr followed by ATP addition and measured after 48 hrs by MTT assay relative to control. The settings on record: time 49.0 hrs.
Experiment [14] has the same target. Description: Antagonist activity at P2X7R in mouse N2a cells assessed as inhibition of ATP-induced ROS production at 0.1 uM incubated for 1 hr by using H2DCF-DA probe based fluorescence assay relative to control.
Experiment [15] has the same target. Description: Antagonist activity at P2X7R in mouse N2a cells assessed as reduction in ATP-induced EtBr uptake by cells at 0.1 to 10 uM incubated for 1 hr by fluorescence based assay. To be noted: dose 0.1-10 µM.
Experiment [16] shares this target. Description: Antagonist activity at P2X7R in mouse N2a cells assessed as inhibition of ATP-induced NO production by measuring NO level at 10 uM incubated for 1 hr by using DAF-FM probe based fluorescence assay relative to control. Also on record: scale not given: the % may be the effect or the level left.
For experiment [17] the target is unchanged. Description: Antagonist activity at P2X7R in mouse N2a cells assessed as reduction in ATP-induced YO-PRO-1 uptake by cells at 5 uM incubated for 1 hr by fluorescence imaging based laser scanning microscopic analysis.
Experiment [18] shares this target. In words: Antagonist activity at P2X7R in mouse N2a cells assessed as inhibition of ATP-induced NO production at 50 uM incubated for 1 hr by using DAF-FM probe based fluorescence assay.
The target is the same in experiment [19]. In words: Antagonist activity at P2X7R in mouse N2a cells assessed as reduction in ATP-induced calcium influx at 50 uM incubated for 1 hr by Fura-2AM dye based spectrofluorometry.
Experiment [20] shares this target. Description: Antagonist activity at P2X7R in mouse N2a cells assessed as inhibition of ATP-induced ROS production at 50 uM incubated for 1 hr by using H2DCF-DA probe based fluorescence assay.
For experiment [21] the target is unchanged. In words: Antagonist activity at P2X7R in mouse N2a cells assessed as reduction in ATP-induced calcium influx at 5 uM incubated for 1 hr by Fluo-3AM dye based laser scanning microscopy.

pEC50: −log10 of the molar value. Calls of active or inactive are those of the source. The calls are words filed in the database; no cut-off is given here.

The record followed here is ChEMBL document CHEMBL4680337, “Synthetic 1,4-Naphthoquinones inhibit P2X7 receptors in murine neuroblastoma cells” (Bioorg Med Chem, 2021).

One may read the inhibition as the relative decrease from the control value, in per cent. Take `CCOc1ccc(Nc2ccc(/C(=C3C=C/C(=[N+](/CC)Cc4cccc(S(=O)(=O)[O-])c4)C=C/3C)c3ccc(N(CC)Cc4cccc(S(=O)(=O)O)c4)cc3C)cc2)cc1`: in [1], the Activity was 14.6%. For the same compound, the inhibition result in experiment [2], in experiment [3] and in [5] was “Active” each time. The inhibition in experiment [4] turned out to be 46%.
In general, pEC50 refers to the EC50 on a negative log10 scale, so that one unit is a factor of ten. On to `COC1=C(S[C@@H]2O[C@H](COC(C)=O)[C@@H](OC(C)=O)[C@H](OC(C)=O)[C@H]2OC(C)=O)C(=O)c2c(O)c(C)c(C)c(O)c2C1=O`, for which the outcome in [6] was inactive. Also, the inhibition entry in [7] was “Dose-dependent effect”; in [3] it was 54.1%; in experiment [9] it was 70.9%; in [10], 25.2%. Further, in experiment [8], the Activity turned out to be 56.8%. Moreover, the inhibition result in experiment [11] was “inactive”. Moreover, the pEC50 with N2a was 4.75.
Regarding `COC1=C(S[C@@H]2O[C@H](CO)[C@@H](O)[C@H](O)[C@H]2O)C(=O)c2ccccc2C1=O`, the inhibition result in [7] is “Dose-dependent effect”; in [3] it was 60.9%; in experiment [10] it was 34.8%; in experiment [11], 15.1%; in experiment [14], 69.8%. In addition, in experiment [12], the inhibition entry was “inactive”. The Activity in [13] amounted to 22.2%. For the same compound, the negative logarithm of the EC50 (pEC50) in the experiment with N2a is 4.12.
Regarding `O=C1C2=C(S[C@H]3O[C@@H](CO)[C@H](O)[C@@H](O)[C@@H]3O2)C(=O)c2ccccc21`, the inhibition result in experiment [15] and in experiment [17] was “Active” in each case. Besides, the inhibition entry in experiment [7] is “Dose-dependent effect”; in experiment [3], 46.2%; in experiment [10], 42.6%; in experiment [11] it was 32.7%; in experiment [14], 66.3%. For the same compound, the Activity in experiment [16] is 44.5%; in experiment [13] it was 19.6%. Moreover, the negative-log EC50 (pEC50) in the experiment with N2a was 4.53.
With `Cc1cc(/N=N/c2ccc(S(=O)(=O)O)cc2S(=O)(=O)O)c(COP(=O)(O)O)c(C=O)c1O`, the inhibition result in experiment [18], in [19] and in [20] was “Active” throughout.
For the compound `Clc1cccc(-c2nnnn2Cc2cccnc2)c1Cl`, the inhibition in experiment [11] is 90%.
Regarding `Cc1c(C)c(O)c2c(c1O)C(=O)C1=C(S[C@H]3O[C@@H](CO)[C@H](O)[C@@H](O)[C@@H]3O1)C2=O`, the outcome in experiment [6] was inactive. The inhibition entry in [21] was “Active”. The Activity in [8] came out at 48.5%. The inhibition in experiment [3] came to 20.7%; in experiment [9], 58.4%; in experiment [10], 18.3%; in experiment [11], 36%. In the experiment with N2a, the negative-log EC50 (pEC50) is 4.65.
